Test results taken from patent publication US20070225278A1, “Methods for treating cognitive and other disorders” (priority 2006, published 2007).

How the values were obtained:
[1] = Antidepressant-like effects (MED), Table 2; format: in vivo; details: minimal effective dose
From the text: Table 2, below, summarizes the dose at which antidepressant-like effects are observed, the dose at which sexual dysfunction occurs, and the therapeutic window.

male Long-Evans rats = assay: Novel object recognition (NOR); format: in vivo, rat
Method: Animals: Adult male Sprague-Dawley rats (Charles River, Wilmington, Mass.) weighing 280-350 g at the time of surgery were used for all microdialysis experiments. Adult male Long-Evans rats (Charles River, Wilmington, Mass.) weighing 180-220 g were used for NOR studies. Rats were housed individually for recognition memory studies. All animals had free access to food and water and were group housed in the AAALAC-accredited facility that was maintained on a 12 h light dark cycle (lights on at 0600 h) for at least 1 week prior to surgery or behavioral testing. […]
Novel object recognition (NOR) training and testing was performed in a circular field (diameter ˜70 cm, 30 cm high) constructed out of plastic and containing bedding. […] Animal performance was tracked by video and monitored by an experimenter located outside of the testing room. […]
The visual recognition task was divided into 3 sessions—habituation, a sample trial and a choice trial. […] The amount of time exploring the objects was recorded for the entire trial. […]
The effect of treatment on object exploration during the sample trial was examined using a one-way ANOVA on total contact time followed by Fisher's LSD group mean pairwise comparisons. The amount of time exploring the novel and familiar objects across treatment groups was analyzed using a repeated measures ANOVA followed by Fisher's LSD post hoc comparisons. […]

rats = assay: 5-choice serial reaction time test (5CSRT), variable ITI; format: in vivo, rat; details: 1 mg/kg ip, 10 and 7 sec ITI, p<0.05 vs vehicle
From the text: The 5-choice serial reaction time task is a behavioral assay that is used to measure attention and impulsivity in rats. Rats are trained to respond correctly to aperture illuminations reinforced to food rewards until they reach >70% correct responses during a 30-minute baseline session. Once animals reach baseline criteria, a variable stimulus duration (SD) and variable inter-trial interval (ITI) test can be used to manipulate normal baseline performance. […] When the ITI is increased from that used during baseline training impulsivity, as measured by premature responses, is increased. Compounds and manipulations that improve attention will improve performance and those that decrease impulsivity will decrease premature responses.
5CSRT: The test apparatus consisted of ten 25×25 cm aluminum chambers (Med Associates Inc., St. Albans, Vt.). The rear wall of each chamber was concavely curved, containing five accessible apertures, each 2.5 cm square, and 4 cm deep positioned 2 cm above floor level. […]
5CSRT Training: Prior to drug treatments, rats were trained to discriminate a brief visual stimulus light presented randomly in one of the five spatial locations. […] A single nose-poke in this opening during the period of illumination (signal period), or during the 5 second afterwards (limited hold) was reinforced by the delivery of a food pellet and a correct response was recorded. […]

[2] = test system: male Sprague Dawley CD rats; assay: Reversal of DOI induced deficits in PPI; details: significant at 17 mg/kg IP (3-30 mg/kg tested); DOI 3 mg/kg IP
[3] = test system: male Sprague Dawley CD rats; assay: Reversal of d-amphetamine induced deficits in pre-pulse inhibition (PPI); details: 3-17 mg/kg IP, d-amphetamine 4 mg/kg SC

c1cc2c3c(c1)[C@H]1CCC[C@H]1N3CCNC2 [Compound 1]
Antidepressant-like effects (MED mg/kg) [1]: 0.3 mg/kg
effect on exploration during the sample trial (male Long-Evans rats; 1 mg/kg orally): No significant effect
exploration of novel vs familiar object in choice trial (retention) (male Long-Evans rats; 1 mg/kg orally 60 minutes prior to sample trial, 48 hour retention interval): significantly greater time spent exploring the novel than the familiar object
premature responding (rats): statistically significant decrease
attenuation of DOI induced disruption in gating (PPI) [2]: significantly attenuated
attenuation of amphetamine induced deficit in PPI ([3]; all doses tested): significantly attenuated
effect on startle alone responding [3]: without having a significant effect
